# According to patent publication US12037386B2, “Antibodies to PfGARP kill Plasmodium falciparum malaria parasites and protect against infection and severe disease” (priority 2020, dated 2024):
# Like-named read-outs stand apart in the source and are kept apart here.
# Assays:
# [1] = test system: Ring stage 3D7 parasites; experiment: Food vacuole integrity, Fluo-4-AM confocal microscopy; format: cell-based, Plasmodium falciparum; conditions: 1 μM, positive control, 24 hours
# Experimental: FIG. 17 are images showing that anti-PfGARP disrupts food vacuole integrity. Ring stage 3D7 parasites were treated with pre-immune sera (1:10), 1 μM chloroquine, or anti-PfGARP antisera (1:10) for 24 hours, followed by staining with DAPI and Fluo-4-AM. […] Data are representative of 2 independent experiments.
# The impact of anti-PfGARP antibodies on food vacuole integrity by confocal microscopy was evaluated using the calcium binding dye Fluo-4-AM, which preferentially labels the food vacuole and has been used to distinguish the food vacuole from the endoplasmic reticulum (Zhang, M. et al. Science 360 (2018)).
# The impact of anti-PfGARP antibodies on food vacuole integrity was further evaluated by confocal microscopy using the calcium binding dye Fluo-4-AM, which specifically labels the food vacuole. Ring stage 3D7 parasites were incubated with culture media (negative control), 1 μM chloroquine (positive control), or anti-PfGARP prepared by rPfGARP-A immunization for 24 hours. Parasites were washed with 1×PBS three times and incubated with Fluo-4-AM (a cell-permeable calcium-sensing dye that fluoresces green when bound with Ca^+2) at a final concentration of 2 μM and DAPI for 30 minutes, at 37° C. The parasites were washed with 1×PBS and observed under a fluorescent microscope.
# [2] = test system: food vacuole of parasites; conditions: cited from earlier work
smiles,measurement,setting,value
CCN(CC)CCCC(C)Nc1ccnc2cc(Cl)ccc12 (stereo not drawn) [chloroquine],food vacuole integrity (Fluo-4-AM redistribution),[1],disrupts the food vacuole leading to dispersion of the dye into the parasite's cytosol
same,effect on food vacuole,[2]; high concentrations (3 μM),disrupts the food vacuole membrane
same,effect on food vacuole,[2]; lower concentrations (68 nM),"marked food vacuole swelling, but no extravasation of hemozoin into the cytoplasm"
